According to a melting point compilation (Tetko et al.; mined from patent text by program, amines drawn as free bases though some values may be those of a salt):

Structure (SMILES) | melting point [°C]
CC1CC(=O)NN=C1c1ccc(NC(=O)C2CC2(C)C)cc1 (stereo unspecified) | 222 to 223
COc1c(N2CCCC2)c(F)cc2c(=O)c(C(=O)O)cn(C3CC3)c12 | 257 to 258
Clc1nc2c(c(N3CCCC3)n1)SCCC2 | 76
Cc1cccc([N+](=O)[O-])c1CNc1cccn2c(C)c(C)nc12 | 160 to 162
Cc1c(Oc2nccs2)ccc(C(=O)O)c1Cl | 150 to 152
Cc1sc(-c2ccccc2)nc1COc1ccc(CCC[C@@H]2OC(=O)NC2=O)cc1 | 113 to 114
O=C(N1CCCCC12CCc1ccccc1C2=O)C(F)(F)F (stereo unspecified) | 97 to 100
COc1c(CCc2ccc(NS(C)(=O)=O)cc2)cc(N2CCC(=O)NC2=O)cc1C(C)(C)C | 233 to 234
CC(C)n1nc(-c2sc(NC(=O)CCN3CCOCC3)nc2-c2ccccc2)ccc1=O | 197 to 198
CN1c2ccc(C=C(c3ccccc3)c3ccccc3)cc2S(=O)(=O)c2cc(C=C(c3ccccc3)c3ccccc3)ccc21 | 246 to 252
O=C(O)CCC(=O)NCc1ccccc1 | 138
OC(Cn1c(-c2ccc(Cl)cc2)nc2cccnc21)c1ccccc1 (stereo unspecified) | 166 to 168
CNCCCc1c[nH]c(-c2ccc(F)cc2)c1-c1ccncc1 | 193 to 198
CCCCCCOC(=O)NC(=N)c1ccc(NCc2nc3cc(C(=O)N(CCC(=O)OCC)c4ccccn4)ccc3n2C)cc1 | 126 to 128
FC(F)(F)c1ccc(/C=C/c2cc(Cl)cc(Cl)c2)cc1 | 98 to 100
Brc1cncc(-c2ccccc2Oc2ccccc2)c1 | 109
O=C(O)c1ccc(OCc2ccc3ccccc3n2)cc1 | > 300
NNC(=O)c1ccc2occ(-c3cc(F)ccc3F)c2c1 | 198 to 199
CC(C(O)C(C)(C)Cc1ccc(Cl)c(OC(F)(F)F)c1)n1cncn1 (stereo unspecified) | 109 to 110
COC12CCCCC1CC(c1ccccc1)=NN2S(=O)(=O)c1ccc(C)cc1 (stereo unspecified) | 112 to 114
OCc1ccc(/C=C/c2ccncc2)nc1 | > 199
O=C1CCCC(=O)c2cc(OCc3ccccc3)ccc2N1 | 169 to 170
COc1cc2c(c3c1OC(C)(C)C3)C(c1ccn(CC(=O)Nc3cccnc3)c(=O)c1)=NC(C)(C)C2 | 251 to 253
COc1ccc2oc3ccc([N+](=O)[O-])cc3c2c1C(=O)Nc1cccnc1 | 263 to 266

Structure (SMILES) | melting point [°C]
CC(=NO)c1ccc2c(c1)C(c1ccccc1F)=NC(C)C(=O)N2C (stereo unspecified) | 101 to 103
COc1ccc(-c2ccc(-c3ccc(C(F)(F)F)cc3)nc2-c2ccc(OC)cc2)cc1 | 144 to 147
CCCc1oc(C)cc1C(=O)O | 91 to 102
Cc1nc(Nc2ccc(F)cc2)nc(N2CCc3ccccc3C2CO)c1C (stereo unspecified) | 198 to 200
CCOC(=O)C1=C(N)N=C(SCC)C(C(=O)OCC)C1c1cccc([N+](=O)[O-])c1 (stereo unspecified) | 187
CCNCC1(O)CCN(c2cc3c(cc2F)c(=O)c(C(=O)O)cn3C2CC2)C1 (stereo unspecified) | 202 to 207
CC(=O)OC1C(CO)OC(n2cnc3c(N)ncnc32)C1O (stereo unspecified) | 195 to 201
COc1ccc(-c2cncc(C#N)c2-c2ccc3[nH]ccc3c2)cc1OC | 215 to 217
O=CCCc1cc(F)c2ncc(C(=O)NCc3ccc(Cl)cc3)c(O)c2c1 | 242 to 244
CCN(C(=O)c1cc(C(C)(C)C)c(OC(=O)c2cc(C(C)(C)C)c(O)c(C(C)(C)C)c2)c(C(C)(C)C)c1)c1ccc(C)cc1 | 214 to 216
CCC1CCCCN1CC(=O)NN=Cc1c(-c2ccccc2)nn2ccccc12 (stereo unspecified) | 156 to 158
O=C(CC1(Sc2ccc(Oc3ccc(Cl)cc3)cc2)CCOCC1)NO | 50 to 55
CCOc1ncnc(C(F)(F)F)c1CS(=O)(=O)C1=NOC(C)(CCl)C1 (stereo unspecified) | 76 to 78
O=[N+]([O-])C=C1NCCN1C/C=C\Cl | 117 to 118
Cc1ccc2c(c1)C(=O)c1ccc(C(N)=O)cc1S2(=O)=O | 305
CCOC(=O)c1cn(C2CC2)c2cc(-n3cccc3)c(F)cc2c1=O | 216 to 219
O=C(O)c1cccc(-c2ccc3c(c2)N(c2ccc(Cl)c(Cl)c2)CC3)c1 | 205 to 206
O=C(NCc1ccc(Cl)cc1)c1cnc2ccc(C#CCO)cn2c1=O | 179 to 181
COc1ccc(S(=O)(=O)n2c(CCCC(=O)O)cc3cc(Cl)ccc32)cc1 | 138 to 142
O=C(O)[C@@H](Cl)[C@H](O)c1ccccc1 | 98 to 100
N#Cc1ccc(CN2CCc3ccc(C(=O)CCCC4CCN(Cc5ccccc5Cl)CC4)cc3CC2)cc1 | 118 to 119
COCOc1cc(C(=O)OC)[nH]n1 | 54 to 55
COc1ccc(C2(C(C)(C)O)CCN(C)CC2)cc1 | 114 to 115
Cc1nc(-c2cn(CCc3ccc(F)cc3)nn2)sc1C(=O)NCc1ccccc1 | 181 to 182

Structure (SMILES) | melting point [°C]
Oc1cc(Br)c(Br)cc1O | 110 to 111
CCN(CC)C(=O)N1SN(C(C)C)C(=O)c2ccccc21 | 103 to 104
Cc1cc(OCC(=O)Nc2cc(C(=O)O)ccc2Cl)ccc1C(C)C | 174 to 175
CCCCCN1C(=O)C(c2ccc3c(c2)OCO3)c2cccnc21 (stereo unspecified) | 75 to 77
CC(C)NCC(O)c1ccccc1 (stereo unspecified) | 90
COc1ccc(CNc2cc(Cn3c(C(=O)c4cc(C)cc(C)c4)c(C(C)C)c(=O)[nH]c3=O)cc(F)n2)cc1 | 120 to 122
CCOC(=O)C1=C(C)NC(C)=C(C(=O)OC)C1c1cc([N+](=O)[O-])ccc1Cl (stereo unspecified) | 163 to 164
Cc1oc(-c2ccccc2)nc1CC=Cc1ccc(CCCC2OC(=O)NC2=O)cc1 (stereo unspecified) | 136 to 137
CN(C)C=Nc1cc(Cc2c(Cl)cccc2Cl)nc(Nc2ccc(C#N)cc2)n1 | 175 to 180
Cn1c(=O)cc(-c2cccc(Cl)c2)c2cc(C(=O)c3ccc([N+](=O)[O-])cc3)ccc21 | 174
COc1ccc(Sc2nc(C)n(Cc3cc4c(cc3Cl)OCO4)c2C(=O)O)cc1 | 200 to 210
CC(=O)N(O)Cc1ccc(OCCN(C)c2nc3ccccc3o2)cc1 | 135 to 136
COc1ccc2c(c1OCc1ccccc1)CCN(C=O)C2 | 118
O=S(=O)(Cl)CCCCCCCc1ccc(OCc2ccccc2)cc1 | 33 to 35
CCCCCC(=O)OCC(CO)CCn1cnc2c(=O)[nH]c(N)nc21 (stereo unspecified) | 179 to 181
CC(=O)c1noc2ccccc12 | 30 to 32
CCOCC(=O)Nc1nc(-c2ccco2)c(C(=O)C2CCOCC2)s1 | 121 to 126
Cc1ncc(CC(=O)O)s1 | 144
CCCc1c(OCCCOc2ccc(C(=O)CCC(=O)O)c(F)c2)ccc(C(C)=O)c1O | 113 to 118
CN(C=O)c1ccc(Cl)cc1C(=O)c1ccccc1 | 93.5 to 94.5
COc1ccc(C(=O)CCC(=O)N[C@@H](C)C(=O)O)cc1 | 100 to 102
CCOc1ccc(-c2[nH]c3ccc(OCc4ccccc4)cc3c2C)cc1 | 143 to 145
CC(C)(C)COc1ccc(NC(=O)c2cnn(-c3ccc(F)cc3)c2Cl)cc1C#N | 149 to 150
